Experimental data as given in patent US20180344680A1, “COMPOSITIONS AND METHODS FOR TREATMENT, AMELIORATION, AND PREVENTION OF DIABETES-RELATED SKIN ULCERS” (THE ARIZONA BOARD OF REGENTS ON BEHALF OF THE UNIVERSITY OF …, priority 2015, published 2018).

Experiments:
HaCaT cells = test: Cell growth (xCELLigence) of HaCaT cells; format: cell-based, human; settings: 5 μmol/L SF or 20 μmol/L CA, up to 72 h
Method: Human immortalized keratinocytes HaCaT were obtained from the Arizona Cancer Center (see, e.g., Boukamp P, et al., J Cell Biol 106:761-771, 1988). Cells were grown in Dulbecco's modified Eagle's medium (DMEM) containing low glucose (LG, 5.5 mmol/L) and 10% fetal bovine serum (FBS) in an incubator at 37° C. with 5% CO2. For the experiments, the cells were starved in serum-free LG DMEM for 24 h, then either maintained in LG DMEM or switched to high glucose (HG, 25 mmol/L) DMEM for 2 days (see, e.g., Zheng H, et al., Diabetes 60:3055-3066, 2011; Lan C C, et al., Br J Dermatol 159:1103-1115, 2008). For the treatments, the cells were dosed with 5 μmol/L SF or 20 μmol/L CA.
siRNA transfections. […]
Reactive oxygen species (ROS) measurement, cell proliferation and apoptosis. ROS were measured in HaCaT cells using DCF. […] Then, 48 h later, the cells were switched into fresh medium containing 10 μg/mL DCF, incubated 30 min, and fluorescence intensity was measured by flow cytometry. The rate of cell proliferation was measured by two methods (see, e.g., Ren D, et al., Proc Natl Acad Sci USA 108:1433-1438, 2011): 1) detection of Ki67 using indirect immunofluorescence as described previously (see, e.g., Lau A, et al., Mol Cell Biol 30:3275-3285, 2010); and 2) using the xCELLigence system (Roche). […]

wound skin tissues = test: Apoptosis by TUNEL in wound skin tissues of STZ mice; format: in vivo, mouse
Excerpt: Diabetes mouse model and treatments. Nrf2^+/+ and Nrf2^-/- C57BL/6 mice were described previously (see, e.g., Jiang T, et al., Diabetes 59:850-860, 2010) and were housed and handled in accordance with the University of Arizona Institutional Animal Care policies. The STZ-induced diabetic model was previously described (see, e.g., Zheng H, et al., Diabetes 60:3055-3066, 2011) and only 8 week old male mice were included in this study. Briefly, three weeks after STZ injections, fasting glucose levels (FGL, 4 h fast) were measured using the AlphaTRAK system (Abbott Laboratory, North Chicago, Ill.) and mice with a FGL higher than or equal to 250 mg/dL were considered diabetic and included in the study (see, e.g., FIG. 2A and FIG. 3A for a detailed timeline). […] Gross wound closure was quantified by ImageJ software, and wound healing was expressed as the percentage of the original wound area that had healed. […] ROS were measured in HaCaT cells using DCF. […] Then, 48 h later, the cells were switched into fresh medium containing 10 μg/mL DCF, incubated 30 min, and fluorescence intensity was measured by flow cytometry. […] For this, 8000 HaCaT cells/well were seeded in LG or HG media, with or without an NRF2 activator, and cell growth was monitored for 72 h. […]

Row | Compound | inhibition of cell proliferation by HG (cell growth) (HaCaT cells) | apoptosis (TUNEL) (wound skin tissues)
1 | O=CC=Cc1ccccc1 [CA, Cinnamaldehyde] | partly counteracted | reduced apoptosis to a lesser extent than in Con
2 | C[S@@+]([O-])CCCCN=C=S [SF, L-sulforaphane] | partly counteracted | reduced apoptosis to a lesser extent than in Con
